# Experimental data reported in patent publication US20160220569A1, “CDK4/6 Inhibitor Dosage Formulations For The Protection Of Hematopoietic Stem And Progenitor Cells During Chemotherapy” (G1 Therapeutics, Inc., priority 2015, published 2016).
# Like-named read-outs stand apart in the source and are kept apart here.
# Experiment: 14-day oral gavage toxicokinetic study in rats
# Assay type: in vivo
# Conditions: female, rat, plasma, po; for half-life: read-out: t½ (converted); for concentration at 0.5 h / concentration at 2 h / concentration at 4 h / concentration at 8 h / concentration at 12 h / concentration at 24 h / concentration at 1 h / concentration at […]: rats
# Protocol: Plasma was obtained from blood samples collected from rats in a composite sampling scheme, with 3 samples collected per sex, per dose, at each target collection time, as illustrated in Table 21 to Table 25. Samples were collected from the vehicle control group on Day 1 and Day 14 at 3 hour after administration. […] Blood samples were collected in tubes containing K3EDTA as an anticoagulant and placed on ice until processed to plasma via centrifugation. Samples were stored frozen at −80° C. until shipment to the bioanalytical laboratory for analysis.
# The following parameters were determined:
# Cmax: Maximum observed plasma concentration (ng/mL).
# A value of 0 ng/mL was assigned to all values below the lower limit of quantitation (BLQ, <10.0 ng/mL).
# AUC(0-inf): Area under the plasma concentration vs. time curve extrapolated from 0 to infinity (ng*h/mL), calculated as AUC(0-t)+AUC(t-inf) where AUC(t-inf) is calculated as last measurable concentration (CLast) divided by ke, where ke is the elimination rate constant determined by linear regression of the last three analytically measured points on the log plasma concentration vs. time curve. The selection criteria of the data points for inclusion in the calculation of ke required that at least three data points representing the terminal phase (after Tmax) were regressed and that R2≧0.850 when rounded.
# CL: Clearance (L/h/kg), calculated as the dose divided by AUC(0-t).
# Vd: Volume of distribution (L/kg), calculated as dose divided by the product of ke and AUC(0-inf).
# Vdss: Steady state volume of distribution (L/kg), calculated as clearance […] mean residence time, where mean residence time is calculated as the area under the first moment curve divided by AUC(0-t).
# t½: Elimination half-life (h), calculated as ln(2)/ke, where ke is the elimination rate constant determined by linear regression. Half-life was defined as not determined if regression criteria (specified in AUC(0-inf) above) were not met.
# Cmax/Dose: Normalized Cmax, calculated as Cmax divided by total dose.
# AUC/Dose: Normalized AUC, calculated as AUC(0-t) divided by total dose.
# ii. Statistical Analysis Mean and standard deviation (SD) were calculated in Watson. Values of BLQ were assigned a value of 0 ng/mL for mean calculations. Concentration values and derived TK parameters were reported to three significant figures.
# [1] = 5 mg/kg, oral 5 mg/kg, Study Day 14, Female
# [2] = 15 mg/kg, oral 15 mg/kg, Study Day 1, Female
# [3] = 15 mg/kg, oral 15 mg/kg, Study Day 14, Female
structure (smiles),measurement,setting,value
"CN1CCN(c2ccc(Nc3ncc4cc5n(c4n3)C3(CCCCC3)CNC5=O)nc2)CC1 [Compound 1, 2′-((5-(4-methylpiperazin-1-yl)pyridin-2-yl)amino)-7′,8′-dihydro-6′H-spiro[cyclohexane-1,9′-pyrazino[1′,2′:1,5]pyrrolo[2,3-d]pyrimidin]-6′-one]",Tmax,[1],1 h
same,half-life,[1],265 min
same,concentration at 0.5 h,"15 mg/kg, Individual Compound 1 Plasma Concentration, daily oral 15 mg/kg, Day 1, Female, 0.5 h",1050 ng/mL
same,concentration at 2 h,"15 mg/kg, Individual Compound 1 Plasma Concentration, daily oral 15 mg/kg, Day 1, Female, 2 h",1820 ng/mL
same,concentration at 4 h,"15 mg/kg, Individual Compound 1 Plasma Concentration, daily oral 15 mg/kg, Day 1, Female, 4 h",1750 ng/mL
same,concentration at 8 h,"15 mg/kg, Individual Compound 1 Plasma Concentration, daily oral 15 mg/kg, Day 1, Female, 8 h",1250 ng/mL
same,concentration at 12 h,"15 mg/kg, Individual Compound 1 Plasma Concentration, daily oral 15 mg/kg, Day 1, Female, 12 h",1010 ng/mL
same,concentration at 24 h,"15 mg/kg, Individual Compound 1 Plasma Concentration, daily oral 15 mg/kg, Day 1, Female, 24 h",63.9 ng/mL
same,concentration at 0.5 h,"15 mg/kg, Individual Compound 1 Plasma Concentration, daily oral 15 mg/kg, Day 14, Female, 0.5 h",908 ng/mL
same,concentration at 1 h,"15 mg/kg, Individual Compound 1 Plasma Concentration, daily oral 15 mg/kg, Day 14, Female, 1 h",1410 ng/mL
same,concentration at 4 h,"15 mg/kg, Individual Compound 1 Plasma Concentration, daily oral 15 mg/kg, Day 14, Female, 4 h",1580 ng/mL
same,concentration at 8 h,"15 mg/kg, Individual Compound 1 Plasma Concentration, daily oral 15 mg/kg, Day 14, Female, 8 h",996 ng/mL
same,concentration at 12 h,"15 mg/kg, Individual Compound 1 Plasma Concentration, daily oral 15 mg/kg, Day 14, Female, 12 h",1060 ng/mL
same,concentration at 24 h,"15 mg/kg, Individual Compound 1 Plasma Concentration, daily oral 15 mg/kg, Day 14, Female, 24 h",106 ng/mL
same,concentration at […],"15 mg/kg, Individual Compound 1 Plasma Concentration, daily oral 15 mg/kg, Day 14, Female, […]",117 ng/mL
same,concentration at 0.5 h,"15 mg/kg, Mean Compound 1 Plasma Concentration, oral 15 mg/kg, Day 1, 0.5 h, Female",1180 ng/mL
same,concentration at 1 h,"15 mg/kg, Mean Compound 1 Plasma Concentration, oral 15 mg/kg, Day 1, 1 h, Female",1530 ng/mL
same,concentration at 2 h,"15 mg/kg, Mean Compound 1 Plasma Concentration, oral 15 mg/kg, Day 1, 2 h, Female",1910 ng/mL
same,concentration at 4 h,"15 mg/kg, Mean Compound 1 Plasma Concentration, oral 15 mg/kg, Day 1, 4 h, Female",1690 ng/mL
same,concentration at 8 h,"15 mg/kg, Mean Compound 1 Plasma Concentration, oral 15 mg/kg, Day 1, 8 h, Female",1440 ng/mL
same,concentration at 12 h,"15 mg/kg, Mean Compound 1 Plasma Concentration, oral 15 mg/kg, Day 1, 12 h, Female",916 ng/mL
same,concentration at 24 h,"15 mg/kg, Mean Compound 1 Plasma Concentration, oral 15 mg/kg, Day 1, 24 h, Female",84.5 ng/mL
same,concentration at […],"15 mg/kg, Mean Compound 1 Plasma Concentration, oral 15 mg/kg, Day 1, […], Female",109 ng/mL
same,concentration at 0.5 h,"15 mg/kg, Mean Compound 1 Plasma Concentration, oral 15 mg/kg, Day 14, 0.5 h, Female",1170 ng/mL
same,concentration at 1 h,"15 mg/kg, Mean Compound 1 Plasma Concentration, oral 15 mg/kg, Day 14, 1 h, Female",1450 ng/mL
same,concentration at 2 h,"15 mg/kg, Mean Compound 1 Plasma Concentration, oral 15 mg/kg, Day 14, 2 h, Female",1490 ng/mL
same,concentration at 4 h,"15 mg/kg, Mean Compound 1 Plasma Concentration, oral 15 mg/kg, Day 14, 4 h, Female",1570 ng/mL
same,concentration at 8 h,"15 mg/kg, Mean Compound 1 Plasma Concentration, oral 15 mg/kg, Day 14, 8 h, Female",979 ng/mL
same,concentration at 12 h,"15 mg/kg, Mean Compound 1 Plasma Concentration, oral 15 mg/kg, Day 14, 12 h, Female",805 ng/mL
same,concentration at 24 h,"15 mg/kg, Mean Compound 1 Plasma Concentration, oral 15 mg/kg, Day 14, 24 h, Female",130 ng/mL
same,concentration at […],"15 mg/kg, Mean Compound 1 Plasma Concentration, oral 15 mg/kg, Day 14, […], Female",131 ng/mL
same,AUC(0-inf),[2],23700 ng·h/mL
same,AUC(0-t),[2],23200 ng·h/mL
same,Cmax,[2],1910 ng/mL
same,Tmax,[2],2 h
same,AUC(0-inf),[3],20800 ng·h/mL
same,AUC(0-t),[3],19800 ng·h/mL
same,Cmax,[3],1570 ng/mL
same,Tmax,[3],4 h
same,half-life,[3],314 min
same,concentration at 0.5 h,"30 mg/kg, Individual Compound 1 Plasma Concentration, daily oral 30 mg/kg, Day 1, Female, 0.5 h",2030 ng/mL
same,concentration at 1 h,"30 mg/kg, Individual Compound 1 Plasma Concentration, daily oral 30 mg/kg, Day 1, Female, 1 h",2500 ng/mL
same,concentration at 2 h,"30 mg/kg, Individual Compound 1 Plasma Concentration, daily oral 30 mg/kg, Day 1, Female, 2 h",3440 ng/mL
same,concentration at 4 h,"30 mg/kg, Individual Compound 1 Plasma Concentration, daily oral 30 mg/kg, Day 1, Female, 4 h",2570 ng/mL
same,concentration at 8 h,"30 mg/kg, Individual Compound 1 Plasma Concentration, daily oral 30 mg/kg, Day 1, Female, 8 h",2480 ng/mL
same,concentration at 12 h,"30 mg/kg, Individual Compound 1 Plasma Concentration, daily oral 30 mg/kg, Day 1, Female, 12 h",2000 ng/mL
same,concentration at 24 h,"30 mg/kg, Individual Compound 1 Plasma Concentration, daily oral 30 mg/kg, Day 1, Female, 24 h",310 ng/mL
same,concentration at […],"30 mg/kg, Individual Compound 1 Plasma Concentration, daily oral 30 mg/kg, Day 1, Female, […]",114 ng/mL
same,concentration at 0.5 h,"30 mg/kg, Individual Compound 1 Plasma Concentration, daily oral 30 mg/kg, Day 14, Female, 0.5 h",1450 ng/mL
same,concentration at 1 h,"30 mg/kg, Individual Compound 1 Plasma Concentration, daily oral 30 mg/kg, Day 14, Female, 1 h",2740 ng/mL
same,concentration at 2 h,"30 mg/kg, Individual Compound 1 Plasma Concentration, daily oral 30 mg/kg, Day 14, Female, 2 h",2170 ng/mL
same,concentration at 4 h,"30 mg/kg, Individual Compound 1 Plasma Concentration, daily oral 30 mg/kg, Day 14, Female, 4 h",2700 ng/mL
same,concentration at 8 h,"30 mg/kg, Individual Compound 1 Plasma Concentration, daily oral 30 mg/kg, Day 14, Female, 8 h",1970 ng/mL
same,concentration at 12 h,"30 mg/kg, Individual Compound 1 Plasma Concentration, daily oral 30 mg/kg, Day 14, Female, 12 h",2290 ng/mL
same,concentration at 24 h,"30 mg/kg, Individual Compound 1 Plasma Concentration, daily oral 30 mg/kg, Day 14, Female, 24 h",280 ng/mL
